Results from the NIST ThermoML archive (doi:10.1016/j.jct.2012.06.030).

Assay: excess molar enthalpy (molar enthalpy of mixing); xn = mol fraction of the nth substance listed
Conditions: 101 kPa, Liquid, isothermal titration calorimeter

CCCCCC[n+]1ccc2ccccc2c1.N#C[S-] [2-hexylisoquinolinium thiocyanate] + O
Conditions | excess molar enthalpy [kcal/mol]
298.15 K, x1 = 0.0916 | 0.0327
298.15 K, x1 = 0.0938 | 0.0335
298.15 K, x1 = 0.0961 | 0.0344
298.15 K, x1 = 0.0985 | 0.0351
298.15 K, x1 = 0.101 | 0.0361
298.15 K, x1 = 0.1036 | 0.0368
298.15 K, x1 = 0.1064 | 0.0378
298.15 K, x1 = 0.1093 | 0.0387
298.15 K, x1 = 0.1125 | 0.0399
298.15 K, x1 = 0.1157 | 0.0409
298.15 K, x1 = 0.1192 | 0.0421
298.15 K, x1 = 0.1229 | 0.0435
298.15 K, x1 = 0.1264 | 0.0445
298.15 K, x1 = 0.1301 | 0.0459
298.15 K, x1 = 0.134 | 0.0471
298.15 K, x1 = 0.1381 | 0.0485
298.15 K, x1 = 0.1426 | 0.0502
298.15 K, x1 = 0.1473 | 0.0516
298.15 K, x1 = 0.1523 | 0.0533
298.15 K, x1 = 0.1577 | 0.0552
298.15 K, x1 = 0.1635 | 0.0571
298.15 K, x1 = 0.1697 | 0.0593
298.15 K, x1 = 0.1764 | 0.0617
298.15 K, x1 = 0.1836 | 0.0641
298.15 K, x1 = 0.1915 | 0.0667
298.15 K, x1 = 0.2001 | 0.0696
298.15 K, x1 = 0.2095 | 0.0727
298.15 K, x1 = 0.2198 | 0.076
298.15 K, x1 = 0.2312 | 0.0798
298.15 K, x1 = 0.2439 | 0.0834
298.15 K, x1 = 0.258 | 0.0846
298.15 K, x1 = 0.2738 | 0.0832
298.15 K, x1 = 0.2917 | 0.077
298.15 K, x1 = 0.3095 | 0.0691
298.15 K, x1 = 0.3296 | 0.0581
298.15 K, x1 = 0.3525 | 0.0449
298.15 K, x1 = 0.3749 | 0.0325
298.15 K, x1 = 0.4002 | 0.0189
298.15 K, x1 = 0.424 | 0.00672
298.15 K, x1 = 0.4509 | -0.00614
298.15 K, x1 = 0.4749 | -0.0166
298.15 K, x1 = 0.5016 | -0.027
298.15 K, x1 = 0.5315 | -0.037
298.15 K, x1 = 0.5562 | -0.044
298.15 K, x1 = 0.5833 | -0.05
298.15 K, x1 = 0.6133 | -0.055
298.15 K, x1 = 0.6464 | -0.0586
298.15 K, x1 = 0.6834 | -0.0602
298.15 K, x1 = 0.7102 | -0.0598
298.15 K, x1 = 0.7393 | -0.0583
298.15 K, x1 = 0.7708 | -0.0552
298.15 K, x1 = 0.8051 | -0.0502
298.15 K, x1 = 0.8229 | -0.0471
298.15 K, x1 = 0.8415 | -0.0435
298.15 K, x1 = 0.861 | -0.039
298.15 K, x1 = 0.8815 | -0.0342
298.15 K, x1 = 0.9029 | -0.0287
298.15 K, x1 = 0.9253 | -0.0225
298.15 K, x1 = 0.949 | -0.0156
298.15 K, x1 = 0.9738 | -0.00798
303.15 K, x1 = 0.0899 | 0.0318
303.15 K, x1 = 0.092 | 0.0325
303.15 K, x1 = 0.0942 | 0.0332
303.15 K, x1 = 0.0965 | 0.0339
303.15 K, x1 = 0.099 | 0.0347
303.15 K, x1 = 0.1016 | 0.0356
303.15 K, x1 = 0.1043 | 0.0366
303.15 K, x1 = 0.1071 | 0.0373
303.15 K, x1 = 0.1102 | 0.0385
303.15 K, x1 = 0.1134 | 0.0394
303.15 K, x1 = 0.1168 | 0.0406
303.15 K, x1 = 0.1204 | 0.0418
303.15 K, x1 = 0.1238 | 0.0428
303.15 K, x1 = 0.1274 | 0.044
303.15 K, x1 = 0.1312 | 0.0452
303.15 K, x1 = 0.1352 | 0.0466
303.15 K, x1 = 0.1395 | 0.048
303.15 K, x1 = 0.1441 | 0.0495
303.15 K, x1 = 0.1489 | 0.0511
303.15 K, x1 = 0.1542 | 0.0528
303.15 K, x1 = 0.1598 | 0.0547
303.15 K, x1 = 0.1658 | 0.0566
303.15 K, x1 = 0.1723 | 0.0588
303.15 K, x1 = 0.1793 | 0.0612
303.15 K, x1 = 0.187 | 0.0636
303.15 K, x1 = 0.1953 | 0.0664
303.15 K, x1 = 0.2044 | 0.0693
303.15 K, x1 = 0.2144 | 0.0727
303.15 K, x1 = 0.2254 | 0.0748
303.15 K, x1 = 0.2375 | 0.0779
303.15 K, x1 = 0.2511 | 0.0803
303.15 K, x1 = 0.2663 | 0.0805
303.15 K, x1 = 0.2835 | 0.0772
303.15 K, x1 = 0.3031 | 0.071
303.15 K, x1 = 0.3255 | 0.0609
303.15 K, x1 = 0.3483 | 0.048
303.15 K, x1 = 0.3744 | 0.032
303.15 K, x1 = 0.4001 | 0.0169
303.15 K, x1 = 0.4295 | 0.000844
303.15 K, x1 = 0.4576 | -0.0129
303.15 K, x1 = 0.4895 | -0.0268
303.15 K, x1 = 0.5184 | -0.0375
303.15 K, x1 = 0.5509 | -0.0473
303.15 K, x1 = 0.578 | -0.054
303.15 K, x1 = 0.6079 | -0.0595
303.15 K, x1 = 0.641 | -0.0638
303.15 K, x1 = 0.6779 | -0.066
303.15 K, x1 = 0.7193 | -0.0655
303.15 K, x1 = 0.7496 | -0.0636
303.15 K, x1 = 0.7826 | -0.0598
303.15 K, x1 = 0.8185 | -0.054
303.15 K, x1 = 0.858 | -0.0464
303.15 K, x1 = 0.872 | -0.0421
303.15 K, x1 = 0.8864 | -0.037
303.15 K, x1 = 0.9014 | -0.0318
303.15 K, x1 = 0.9168 | -0.027
303.15 K, x1 = 0.9328 | -0.0221
303.15 K, x1 = 0.9494 | -0.0165
303.15 K, x1 = 0.9666 | -0.0104
303.15 K, x1 = 0.9844 | -0.00416
308.15 K, x1 = 0.0931 | 0.0332
308.15 K, x1 = 0.0953 | 0.0339
308.15 K, x1 = 0.0976 | 0.0347
308.15 K, x1 = 0.1 | 0.0355
308.15 K, x1 = 0.1025 | 0.0363
308.15 K, x1 = 0.1052 | 0.0372
308.15 K, x1 = 0.1081 | 0.0381
308.15 K, x1 = 0.111 | 0.0391
308.15 K, x1 = 0.1142 | 0.0401
308.15 K, x1 = 0.1175 | 0.0412
308.15 K, x1 = 0.1211 | 0.0423
308.15 K, x1 = 0.1248 | 0.0436
308.15 K, x1 = 0.1284 | 0.0447
308.15 K, x1 = 0.1321 | 0.0459
308.15 K, x1 = 0.1361 | 0.0473
308.15 K, x1 = 0.1403 | 0.0486
308.15 K, x1 = 0.1448 | 0.0501
308.15 K, x1 = 0.1496 | 0.0516
308.15 K, x1 = 0.1547 | 0.0533
308.15 K, x1 = 0.1602 | 0.0551
308.15 K, x1 = 0.166 | 0.057
308.15 K, x1 = 0.1723 | 0.0589
308.15 K, x1 = 0.1792 | 0.0612
308.15 K, x1 = 0.1865 | 0.0636
308.15 K, x1 = 0.1945 | 0.0661
308.15 K, x1 = 0.2033 | 0.069
308.15 K, x1 = 0.2128 | 0.0718
308.15 K, x1 = 0.2233 | 0.0744
308.15 K, x1 = 0.2349 | 0.076
308.15 K, x1 = 0.2478 | 0.0778
308.15 K, x1 = 0.2621 | 0.0795
308.15 K, x1 = 0.2782 | 0.0785
308.15 K, x1 = 0.2941 | 0.0754
308.15 K, x1 = 0.3119 | 0.0706
308.15 K, x1 = 0.332 | 0.063
308.15 K, x1 = 0.3549 | 0.0511
308.15 K, x1 = 0.3772 | 0.0372
308.15 K, x1 = 0.4025 | 0.0214
308.15 K, x1 = 0.4262 | 0.00743
308.15 K, x1 = 0.4529 | -0.00703
308.15 K, x1 = 0.4767 | -0.0189
308.15 K, x1 = 0.5032 | -0.0306
308.15 K, x1 = 0.5328 | -0.0421
308.15 K, x1 = 0.5573 | -0.05
308.15 K, x1 = 0.5841 | -0.0571
308.15 K, x1 = 0.6137 | -0.0629
308.15 K, x1 = 0.6464 | -0.0672
308.15 K, x1 = 0.6827 | -0.0693
308.15 K, x1 = 0.7091 | -0.0693
308.15 K, x1 = 0.7376 | -0.0674
308.15 K, x1 = 0.7685 | -0.0641
308.15 K, x1 = 0.802 | -0.059
308.15 K, x1 = 0.8213 | -0.0557
308.15 K, x1 = 0.8416 | -0.0519
308.15 K, x1 = 0.8628 | -0.0471
308.15 K, x1 = 0.883 | -0.0418
308.15 K, x1 = 0.9042 | -0.0356
308.15 K, x1 = 0.9264 | -0.0289
308.15 K, x1 = 0.9497 | -0.0213
308.15 K, x1 = 0.9742 | -0.0116
